# Measurements as given in ChEMBL document CHEMBL4007388, “Synthesis and antiproliferative activity of monocationic arylthiophene derivatives” (Eur J Med Chem, 2017).
# Columns and labels:
# K562 = test: Growth inhibition of human K562 cells incubated for 48 hrs by sulforhodamine B assay; type: functional; details: K562, 48 h
# RPMI-8226 = test: Growth inhibition of human RPMI8226 cells incubated for 48 hrs by sulforhodamine B assay; type: functional; details: RPMI-8226, 48 h
# SR = test: Growth inhibition of human SR cells incubated for 48 hrs by sulforhodamine B assay; type: functional
# HOP-62 = test: Growth inhibition of human HOP62 cells incubated for 48 hrs by sulforhodamine B assay; type: functional; details: HOP-62, 48 h
# HOP-92 = test: Growth inhibition of human HOP92 cells incubated for 48 hrs by sulforhodamine B assay; type: functional; details: HOP-92, 48 h
# NCI-H23 = test: Growth inhibition of human NCI-H23 cells incubated for 48 hrs by sulforhodamine B assay; type: functional; details: NCI-H23, 48 h
# NCI-H322M = test: Growth inhibition of human NCI-H322M cells incubated for 48 hrs by sulforhodamine B assay; type: functional
# NCI-H460 = test: Growth inhibition of human NCI-H460 cells incubated for 48 hrs by sulforhodamine B assay; type: functional; details: NCI-H460, 48 h
# NCI-H522 = test: Growth inhibition of human NCI-H522 cells incubated for 48 hrs by sulforhodamine B assay; type: functional; details: NCI-H522, 48 h
# COLO 205 = test: Growth inhibition of human COLO205 cells incubated for 48 hrs by sulforhodamine B assay; type: functional; details: COLO 205, 48 h
# HCC 2998 = test: Growth inhibition of human HCC2998 cells incubated for 48 hrs by sulforhodamine B assay; type: functional; details: HCC 2998, 48 h
# HCT-116 = test: Growth inhibition of human HCT116 cells incubated for 48 hrs by sulforhodamine B assay; type: functional; details: HCT-116, 48 h
# HCT-15 = test: Growth inhibition of human HCT15 cells incubated for 48 hrs by sulforhodamine B assay; type: functional; details: HCT-15, 48 h
# HT-29 = test: Growth inhibition of human HT-29 cells incubated for 48 hrs by sulforhodamine B assay; type: functional; details: HT-29, 48 h
# KM12 = test: Growth inhibition of human KM12 cells incubated for 48 hrs by sulforhodamine B assay; type: functional; details: KM12, 48 h
# SW-620 = test: Growth inhibition of human SW620 cells incubated for 48 hrs by sulforhodamine B assay; type: functional; details: SW-620, 48 h
# SNB-19 = test: Growth inhibition of human SNB19 cells incubated for 48 hrs by sulforhodamine B assay; type: functional; details: SNB-19, 48 h
# SNB-75 = test: Growth inhibition of human SNB75 cells incubated for 48 hrs by sulforhodamine B assay; type: functional; details: SNB-75, 48 h
# LOX IMVI = test: Growth inhibition of human LOXIMVI cells incubated for 48 hrs by sulforhodamine B assay; type: functional
# Malme-3M = test: Growth inhibition of human MALME-3M cells incubated for 48 hrs by sulforhodamine B assay; type: functional
# M14 = test: Growth inhibition of human M14 cells incubated for 48 hrs by sulforhodamine B assay; type: functional; details: M14, 48 h
# MDA-MB-435 = test: Growth inhibition of human MDA-MB-435 cells incubated for 48 hrs by sulforhodamine B assay; type: functional; details: MDA-MB-435, 48 h
# SK-MEL-28 = test: Growth inhibition of human SK-MEL-28 cells incubated for 48 hrs by sulforhodamine B assay; type: functional; details: SK-MEL-28, 48 h
# SK-MEL-5 = test: Growth inhibition of human SK-MEL-5 cells incubated for 48 hrs by sulforhodamine B assay; type: functional; details: SK-MEL-5, 48 h
# UACC-257 = test: Growth inhibition of human UACC257 cells incubated for 48 hrs by sulforhodamine B assay; type: functional; details: UACC-257, 48 h
# UACC-62 = test: Growth inhibition of human UACC62 cells incubated for 48 hrs by sulforhodamine B assay; type: functional; details: UACC-62, 48 h
# IGROV-1 = test: Growth inhibition of human IGROV1 cells incubated for 48 hrs by sulforhodamine B assay; type: functional; details: IGROV-1, 48 h
# OVCAR-3 = test: Growth inhibition of human OVCAR3 cells incubated for 48 hrs by sulforhodamine B assay; type: functional; details: OVCAR-3, 48 h
# OVCAR-5 = test: Growth inhibition of human OVCAR5 cells incubated for 48 hrs by sulforhodamine B assay; type: functional; details: OVCAR-5, 48 h
# NCI/ADR-RES = test: Growth inhibition of human NCI/ADR-RES cells incubated for 48 hrs by sulforhodamine B assay; type: functional
# SK-OV-3 = test: Growth inhibition of human SKOV3 cells incubated for 48 hrs by sulforhodamine B assay; type: functional; details: SK-OV-3, 48 h
# A498 = test: Growth inhibition of human A498 cells incubated for 48 hrs by sulforhodamine B assay; type: functional; details: A498, 48 h
# ACHN = test: Growth inhibition of human ACHN cells incubated for 48 hrs by sulforhodamine B assay; type: functional
# CAKI-1 = test: Growth inhibition of human Caki1 cells incubated for 48 hrs by sulforhodamine B assay; type: functional; details: CAKI-1, 48 h
# RXF 393 = test: Growth inhibition of human RXF393 cells incubated for 48 hrs by sulforhodamine B assay; type: functional; details: RXF 393, 48 h
# TK-10 = test: Growth inhibition of human TK10 cells incubated for 48 hrs by sulforhodamine B assay; type: functional; details: TK-10, 48 h
# PC-3 = test: Growth inhibition of human PC3 cells incubated for 48 hrs by sulforhodamine B assay; type: functional; details: PC-3, 48 h
# DU-145 = test: Growth inhibition of human DU145 cells incubated for 48 hrs by sulforhodamine B assay; type: functional; details: DU-145, 48 h
# MCF7 = test: Growth inhibition of human MCF7 cells incubated for 48 hrs by sulforhodamine B assay; type: functional; details: MCF7, 48 h
# Hs-578T = test: Growth inhibition of human Hs 578T cells incubated for 48 hrs by sulforhodamine B assay; type: functional
# BT-549 = test: Growth inhibition of human BT549 cells incubated for 48 hrs by sulforhodamine B assay; type: functional; details: BT-549, 48 h
# MDA-MB-468 = test: Growth inhibition of human MDA-MB-468 cells incubated for 48 hrs by sulforhodamine B assay; type: functional; details: MDA-MB-468, 48 h
# WI-38 = test: Cytotoxicity against human WI38 cells assessed as reduction in cell viability after 24 hrs by MTT assay; type: cell-based; details: WI-38, 24 h
# WISH = test: Cytotoxicity against human WISH cells assessed as reduction in cell viability after 24 hrs by MTT assay; type: cell-based
# Escherichia coli = test: Induction of Escherichia coli genomic DNA cleavage after 1 hr by agarose gel electrophoresis method
# Homo sapiens = species: Homo sapiens; test: Inhibition of PTK in human MCF7 cells at 1 uM preincubated for 2 hrs followed by poly-Glu-Tyr substrate addition by ELISA relative to control; type: cell-based
# [1] = Growth inhibition of human NCI60 cells at 10 uM after 48 hrs by SRB assay relative to control; values are per cent of control; details: NCI60, 48 h
structure (smiles),measurement,setting,value
N=C(N)c1ccc(-c2ccc(-c3ccc(Cl)cc3)s2)cc1F,GI50,K562,272 nM
same,GI50,RPMI-8226,248 nM
same,GI50,SR,218 nM
same,GI50,HOP-62,1480 nM
same,GI50,HOP-92,589 nM
same,GI50,NCI-H23,1150 nM
same,GI50,NCI-H322M,386 nM
same,GI50,NCI-H460,207 nM
same,GI50,NCI-H522,194 nM
same,GI50,COLO 205,200 nM
same,GI50,HCC 2998,156 nM
same,GI50,HCT-116,171 nM
same,GI50,HCT-15,172 nM
same,GI50,HT-29,203 nM
same,GI50,KM12,226 nM
same,GI50,SW-620,186 nM
same,GI50,SNB-19,341 nM
same,GI50,SNB-75,165 nM
same,GI50,LOX IMVI,205 nM
same,GI50,Malme-3M,490 nM
same,GI50,M14,179 nM
same,GI50,MDA-MB-435,163 nM
same,GI50,SK-MEL-28,205 nM
same,GI50,SK-MEL-5,1270 nM
same,GI50,UACC-257,1620 nM
same,GI50,UACC-62,218 nM
same,GI50,IGROV-1,611 nM
same,GI50,OVCAR-3,268 nM
same,GI50,OVCAR-5,248 nM
same,GI50,NCI/ADR-RES,361 nM
same,GI50,SK-OV-3,1140 nM
same,GI50,A498,1380 nM
same,GI50,ACHN,203 nM
same,GI50,CAKI-1,173 nM
same,GI50,RXF 393,187 nM
same,GI50,TK-10,1740 nM
same,GI50,PC-3,394 nM
same,GI50,DU-145,430 nM
same,GI50,MCF7,168 nM
same,GI50,Hs-578T,726 nM
same,GI50,BT-549,1500 nM
same,GI50,MDA-MB-468,215 nM
same,IC50,WI-38,53100 nM
same,IC50,WISH,64200 nM
same,Activity,Escherichia coli,Dose-dependent effect
same,inhibition,Homo sapiens,88%
same,growth percent at 10 µM,[1],-67.3%
N=C(N)c1ccc(-c2ccc(-c3ccc(F)cc3)s2)cc1,GI50,K562,268 nM
same,GI50,RPMI-8226,799 nM
same,GI50,SR,307 nM
same,GI50,HOP-62,1580 nM
same,GI50,HOP-92,1540 nM
same,GI50,NCI-H23,1580 nM
same,GI50,NCI-H322M,1330 nM
same,GI50,NCI-H460,392 nM
same,GI50,NCI-H522,1870 nM
same,GI50,COLO 205,204 nM
same,GI50,HCC 2998,492 nM
same,GI50,HCT-116,1580 nM
same,GI50,HCT-15,252 nM
same,GI50,HT-29,323 nM
same,GI50,KM12,1340 nM
same,GI50,SW-620,386 nM
same,GI50,SNB-19,1930 nM
same,GI50,SNB-75,1650 nM
same,GI50,LOX IMVI,164 nM
same,GI50,Malme-3M,1550 nM
same,GI50,M14,1600 nM
same,GI50,MDA-MB-435,1660 nM
same,GI50,SK-MEL-28,1570 nM
same,GI50,SK-MEL-5,1600 nM
same,GI50,UACC-257,2580 nM
same,GI50,UACC-62,1650 nM
same,GI50,IGROV-1,1790 nM
same,GI50,OVCAR-3,1710 nM
same,GI50,OVCAR-5,1550 nM
same,GI50,NCI/ADR-RES,1770 nM
same,GI50,SK-OV-3,1610 nM
same,GI50,A498,1420 nM
same,GI50,ACHN,1560 nM
same,GI50,CAKI-1,1670 nM
same,GI50,RXF 393,1480 nM
same,GI50,TK-10,1850 nM
same,GI50,PC-3,1590 nM
same,GI50,DU-145,1630 nM
same,GI50,MCF7,323 nM
same,GI50,Hs-578T,2160 nM
same,GI50,BT-549,1650 nM
same,GI50,MDA-MB-468,1260 nM
same,IC50,WI-38,197000 nM
same,IC50,WISH,232000 nM
same,Activity,Escherichia coli,Dose-dependent effect
same,inhibition,Homo sapiens,19 to 36%
same,growth percent at 10 µM,[1],-78.7%
N=C(N)c1ccc(-c2ccc(-c3ccc(Cl)cc3)s2)cc1,GI50,K562,202 nM
same,GI50,RPMI-8226,194 nM
same,GI50,SR,249 nM
same,GI50,HOP-92,156 nM
same,GI50,NCI-H23,190 nM
same,GI50,NCI-H322M,182 nM
same,GI50,NCI-H460,193 nM
same,GI50,NCI-H522,186 nM
same,GI50,COLO 205,203 nM
same,GI50,HCC 2998,183 nM
same,GI50,HCT-116,170 nM
same,GI50,HCT-15,171 nM
same,GI50,HT-29,177 nM
same,GI50,KM12,196 nM
same,GI50,SW-620,177 nM
same,GI50,SNB-19,194 nM
same,GI50,SNB-75,157 nM
same,GI50,LOX IMVI,179 nM
same,GI50,Malme-3M,219 nM
same,GI50,M14,172 nM
same,GI50,MDA-MB-435,172 nM
same,GI50,SK-MEL-28,176 nM
same,GI50,SK-MEL-5,204 nM
same,GI50,UACC-257,310 nM
same,GI50,UACC-62,178 nM
same,GI50,OVCAR-3,194 nM
same,GI50,OVCAR-5,169 nM
same,GI50,NCI/ADR-RES,185 nM
same,GI50,SK-OV-3,246 nM
same,GI50,A498,191 nM
same,GI50,ACHN,180 nM
same,GI50,CAKI-1,167 nM
same,GI50,RXF 393,157 nM
same,GI50,TK-10,220 nM
same,GI50,PC-3,164 nM
same,GI50,DU-145,185 nM
same,GI50,MCF7,171 nM
same,GI50,Hs-578T,200 nM
same,GI50,BT-549,1730 nM
same,GI50,MDA-MB-468,173 nM
same,IC50,WI-38,131000 nM
same,IC50,WISH,146000 nM
same,Activity,Escherichia coli,Dose-dependent effect
same,inhibition,Homo sapiens,98%
same,growth percent at 10 µM,[1],-70.5%
